Here are results for two compounds from patent publication US20060178318A1, “Use of aurora kinase inhibitors for reducing the resistance of cancer cells” (priority 2003, published 2006).

The test system of assay [1] is HeLa cells. The experiment in a line: Taxol sensitivity assay (apoptosis, propidium iodide staining and flow cytometry). The settings on record: Aurora-A-overexpressing vs mock-transfected HeLa cells, different concentrations of Taxol for 72 hr, FIG. 1. The class given is cell-based, human. On the technique in general: A flow cytometer gives signals particle by particle.
Protocol: 2×10^5 cells in complete growth medium were plated in a 35 mm dish before transfection using the Gene Juice transfection reagent (Novagen, United Kingdom) according to the manufacturer's protocol. GFP-expressing cells were flow sorted as before, 48 hr after transfection. Equal numbers of flow sorted mock-transfected or Aurora-A-transfected HeLa cell were plated on 6 well plates in DMEM (Life Technologies, Grand Island, N.Y.) containing 10% FBS. Taxol (Sigma Chemical Co.) at different concentrations was added fresh from a stock prepared in DMSO. The cells were exposed to the drug for 72 hr after which they were analyzed by propidium iodide staining and flow cytometry as described earlier. Cells collected at the indicated time points were centrifuged at 1000 rpm for 5 min at room temperature. 1×10^6 cells were resuspended in 0.5 ml PBS, fixed by adding 4.5 ml of ice-cold 70% ethanol, and incubated overnight in fixative at 4° C. Before analysis, fixed cells were washed in PBS and incubated with propidium iodide staining solution (0.1% Triton.X-100, PBS; 0.02 mg/ml propidium iodide; 0.2 mg/ml RnaseA) for 30 min at room temperature. […] Ten thousand events were analyzed per sample. […] The percentage of apoptotic cells was then measured using propidium iodide staining and flow cytometry to enumerate the sub G1 (<2N DNA content) population.

Assay [2] concerns HeLa cells. The settings on record: stated as known; cited from earlier work.
For the next assay, the system named is tubulin. The settings on record: compared with paclitaxel; cited from earlier work.

Take `CC(=O)O[C@H]1C(=O)[C@@]2(C)[C@H]([C@H](OC(=O)c3ccccc3)[C@]3(O)C[C@H](OC(=O)[C@H](O)[C@@H](NC(=O)c4ccccc4)c4ccccc4)C(C)=C1C3(C)C)[C@]1(OC(C)=O)CO[C@@H]1C[C@@H]2O` [paclitaxel]: in the assay on HeLa cells [1], the “resistance to paclitaxel-induced apoptosis (percentage of apoptotic cells, sub G1 population)” value was “striking increase in resistance”. Besides, in the assay with HeLa cells [2], the “sensitivity of HeLa cells to Taxol-induced apoptosis” value was “highly sensitive”. In the case of A-nor-paclitaxel, the “tubulin-assembly activity relative to paclitaxel” value in the assay with tubulin is recorded as “only three times less than that of paclitaxel”.
